{"source": "PubChem BioAssay (NCI)", "assay_in_all_cases": "growth of human tumour cells (NCI), 48 h", "key": {"[1]": {"test_system": "NCI-H460 lung"}, "[2]": {"test_system": "MDA-N"}, "[3]": {"test_system": "NCI-H522 lung"}, "[4]": {"test_system": "HS 578T breast"}, "[5]": {"test_system": "DU-145 prostate"}, "[6]": {"test_system": "UACC-62 melanoma"}, "[7]": {"test_system": "CAKI-1 renal"}, "[8]": {"test_system": "A498 renal"}, "[9]": {"test_system": "HCT-116 colon"}, "[10]": {"test_system": "OVCAR-3 ovarian"}, "[11]": {"test_system": "SK-MEL-28 melanoma"}, "[12]": {"test_system": "CCRF-CEM leukemia"}, "[13]": {"test_system": "NCI-H23 lung"}, "[14]": {"test_system": "HOP-62 NSCLC"}, "[15]": {"test_system": "SNB-75 CNS"}, "[16]": {"test_system": "TK-10 renal"}, "[17]": {"test_system": "SN12C renal"}, "[18]": {"test_system": "K-562 leukemia"}, "[19]": {"test_system": "OVCAR-5 ovarian"}, "[20]": {"test_system": "SF-268 CNS"}, "[21]": {"test_system": "T-47D breast"}, "[22]": {"test_system": "IGROV1 ovarian"}, "[23]": {"test_system": "U251 CNS"}, "[24]": {"test_system": "EKVX NSCLC"}, "[25]": {"test_system": "OVCAR-8 ovarian"}, "[26]": {"test_system": "SNB-19 CNS"}, "[27]": {"test_system": "SK-OV-3 ovarian"}, "[28]": {"test_system": "SF-539 CNS"}, "[29]": {"test_system": "A549 NSCLC"}, "[30]": {"test_system": "HT29 colon"}, "[31]": {"test_system": "SF-295 CNS"}, "[32]": {"test_system": "COLO 205 colon"}, "[33]": {"test_system": "HL-60(TB) leukemia"}, "[34]": {"test_system": "MOLT-4 leukemia"}, "[35]": {"test_system": "786-0 renal"}, "[36]": {"test_system": "HCC-2998 colon"}, "[37]": {"test_system": "SR leukemia"}, "[38]": {"test_system": "OVCAR-4 ovarian"}, "[39]": {"test_system": "SK-MEL-2 melanoma"}, "[40]": {"test_system": "SK-MEL-5 melanoma"}, "[41]": {"test_system": "KM12 colon"}, "[42]": {"test_system": "MCF7 breast"}, "[43]": {"test_system": "HCT-15 colon"}, "[44]": {"test_system": "RPMI-8226 leukemia"}, "[45]": {"test_system": "NCI-H226 lung"}, "[46]": {"test_system": "UACC-257 melanoma"}, "[47]": {"test_system": "MDA-MB-231 breast"}, "[48]": {"test_system": "SW-620 colon"}, "[49]": {"test_system": "LOX IMVI melanoma"}, "[50]": {"test_system": "M14 melanoma"}, "[51]": {"test_system": "ACHN renal"}, "[52]": {"test_system": "RXF 393 renal"}, "[53]": {"test_system": "HOP-92 NSCLC"}, "[54]": {"test_system": "MALME-3M melanoma"}, "[55]": {"test_system": "MDA-MB-435"}, "[56]": {"test_system": "NCI/ADR-RES ovarian"}, "[57]": {"test_system": "PC-3 prostate"}}, "note": "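Five concentrations, 48 hours, 96-well plates. TGI is the concentration that stops growth completely.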", "data": [{"smiles": "O=c1c(-c2c(-c3ccccc3)oc3ccc(Cl)cc3c2=O)c(-c2ccccc2)oc2ccc(Cl)cc12", "values": [{"measurement": "TGI", "setting": "[1]", "result": "> 100", "unit": "µM"}, {"measurement": "TGI", "setting": "[2]", "result": "> 100", "unit": "µM"}, {"measurement": "TGI", "setting": "[3]", "result": "> 100", "unit": "µM"}, {"measurement": "TGI", "setting": "[4]", "result": "> 100", "unit": "µM"}, {"measurement": "TGI", "setting": "[5]", "result": "> 100", "unit": "µM"}, {"measurement": "TGI", "setting": "[6]", "result": "> 100", "unit": "µM"}, {"measurement": "TGI", "setting": "[7]", "result": "> 100", "unit": "µM"}, {"measurement": "TGI", "setting": "[8]", "result": "> 100", "unit": "µM"}, {"measurement": "TGI", "setting": "[9]", "result": "> 100", "unit": "µM"}, {"measurement": "TGI", "setting": "[10]", "result": "> 100", "unit": "µM"}, {"measurement": "TGI", "setting": "[11]", "result": "> 100", "unit": "µM"}, {"measurement": "TGI", "setting": "[12]", "result": "> 100", "unit": "µM"}, {"measurement": "TGI", "setting": "[13]", "result": "> 100", "unit": "µM"}, {"measurement": "TGI", "setting": "[14]", "result": "> 61.4", "unit": "µM"}, {"measurement": "TGI", "setting": "[15]", "result": "> 62.2", "unit": "µM"}, {"measurement": "TGI", "setting": "[16]", "result": "> 100", "unit": "µM"}, {"measurement": "TGI", "setting": "[17]", "result": "> 100", "unit": "µM"}, {"measurement": "TGI", "setting": "[18]", "result": "> 100", "unit": "µM"}, {"measurement": "TGI", "setting": "[19]", "result": "> 100", "unit": "µM"}, {"measurement": "TGI", "setting": "[20]", "result": "> 92.3", "unit": "µM"}, {"measurement": "TGI", "setting": "[21]", "result": "> 100", "unit": "µM"}, {"measurement": "TGI", "setting": "[22]", "result": "> 100", "unit": "µM"}, {"measurement": "TGI", "setting": "[23]", "result": "> 100", "unit": "µM"}, {"measurement": "TGI", "setting": "[24]", "result": "> 100", "unit": "µM"}, {"measurement": "TGI", "setting": "[25]", "result": "> 100", "unit": "µM"}, {"measurement": "TGI", "setting": "[26]", "result": "> 100", "unit": "µM"}, {"measurement": "TGI", "setting": "[27]", "result": "> 89.4", "unit": "µM"}, {"measurement": "TGI", "setting": "[28]", "result": "> 100", "unit": "µM"}, {"measurement": "TGI", "setting": "[29]", "result": "> 100", "unit": "µM"}, {"measurement": "TGI", "setting": "[30]", "result": "> 100", "unit": "µM"}, {"measurement": "TGI", "setting": "[31]", "result": "> 79.4", "unit": "µM"}, {"measurement": "TGI", "setting": "[32]", "result": "> 100", "unit": "µM"}, {"measurement": "TGI", "setting": "[33]", "result": 0.606, "unit": "µM"}, {"measurement": "TGI", "setting": "[34]", "result": "> 100", "unit": "µM"}, {"measurement": "TGI", "setting": "[35]", "result": "> 100", "unit": "µM"}, {"measurement": "TGI", "setting": "[36]", "result": "> 100", "unit": "µM"}, {"measurement": "TGI", "setting": "[37]", "result": "> 100", "unit": "µM"}, {"measurement": "TGI", "setting": "[38]", "result": "> 100", "unit": "µM"}, {"measurement": "TGI", "setting": "[39]", "result": "> 100", "unit": "µM"}, {"measurement": "TGI", "setting": "[40]", "result": "> 100", "unit": "µM"}, {"measurement": "TGI", "setting": "[41]", "result": "> 100", "unit": "µM"}, {"measurement": "TGI", "setting": "[42]", "result": "> 100", "unit": "µM"}, {"measurement": "TGI", "setting": "[43]", "result": "> 100", "unit": "µM"}, {"measurement": "TGI", "setting": "[44]", "result": "> 100", "unit": "µM"}, {"measurement": "TGI", "setting": "[45]", "result": "> 100", "unit": "µM"}, {"measurement": "TGI", "setting": "[46]", "result": "> 100", "unit": "µM"}, {"measurement": "TGI", "setting": "[47]", "result": "> 83.7", "unit": "µM"}, {"measurement": "TGI", "setting": "[48]", "result": "> 100", "unit": "µM"}, {"measurement": "TGI", "setting": "[49]", "result": "> 100", "unit": "µM"}, {"measurement": "TGI", "setting": "[50]", "result": "> 100", "unit": "µM"}, {"measurement": "TGI", "setting": "[51]", "result": "> 100", "unit": "µM"}, {"measurement": "TGI", "setting": "[52]", "result": "> 100", "unit": "µM"}, {"measurement": "TGI", "setting": "[53]", "result": "> 95", "unit": "µM"}, {"measurement": "TGI", "setting": "[54]", "result": "> 100", "unit": "µM"}, {"measurement": "TGI", "setting": "[55]", "result": "> 100", "unit": "µM"}, {"measurement": "TGI", "setting": "[56]", "result": "> 100", "unit": "µM"}, {"measurement": "TGI", "setting": "[57]", "result": "> 100", "unit": "µM"}]}]}
